# Measurements published in PubChem BioAssay (NCI).
#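 Assay format: 96-well plates, 48-hour exposure. GI50 = concentration required for 50% inhibition of growth. TGI denotes the concentration required for complete inhibition of growth.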
# Tests used:
# Experiment in all cases: DTP human tumour cell line panel, 48 h
# OVCAR-4 ovarian = test system: OVCAR-4 ovarian
# OVCAR-5 ovarian = test system: OVCAR-5 ovarian
# HCC-2998 colon = test system: HCC-2998 colon
# LOX IMVI melanoma = test system: LOX IMVI melanoma
# MDA-MB-435 = test system: MDA-MB-435
# IGROV1 ovarian = test system: IGROV1 ovarian
# HS 578T breast = test system: HS 578T breast
# BT-549 breast = test system: BT-549 breast
# EKVX NSCLC = test system: EKVX NSCLC
# NCI-H522 lung = test system: NCI-H522 lung
# SF-295 CNS = test system: SF-295 CNS
# A549 NSCLC = test system: A549 NSCLC
# RPMI-8226 leukemia = test system: RPMI-8226 leukemia
# SW-620 colon = test system: SW-620 colon
# HCT-15 colon = test system: HCT-15 colon
# HT29 colon = test system: HT29 colon
# A498 renal = test system: A498 renal
# MALME-3M melanoma = test system: MALME-3M melanoma
# DU-145 prostate = test system: DU-145 prostate
# KM12 colon = test system: KM12 colon
# MCF7 breast = test system: MCF7 breast
# SNB-19 CNS = test system: SNB-19 CNS
# SN12C renal = test system: SN12C renal
# SK-MEL-2 melanoma = test system: SK-MEL-2 melanoma
# ACHN renal = test system: ACHN renal
# TK-10 renal = test system: TK-10 renal
# SK-MEL-28 melanoma = test system: SK-MEL-28 melanoma
# U251 CNS = test system: U251 CNS
# SNB-75 CNS = test system: SNB-75 CNS
# HCT-116 colon = test system: HCT-116 colon
# NCI-H226 lung = test system: NCI-H226 lung
# SK-OV-3 ovarian = test system: SK-OV-3 ovarian
# NCI-H23 lung = test system: NCI-H23 lung
# NCI-H460 lung = test system: NCI-H460 lung
# HOP-62 NSCLC = test system: HOP-62 NSCLC
# PC-3 prostate = test system: PC-3 prostate
# UACC-257 melanoma = test system: UACC-257 melanoma
# COLO 205 colon = test system: COLO 205 colon
# SF-268 CNS = test system: SF-268 CNS
# OVCAR-8 ovarian = test system: OVCAR-8 ovarian
# CAKI-1 renal = test system: CAKI-1 renal
# SF-539 CNS = test system: SF-539 CNS
# HOP-92 NSCLC = test system: HOP-92 NSCLC
# T-47D breast = test system: T-47D breast
# UACC-62 melanoma = test system: UACC-62 melanoma
# 786-0 renal = test system: 786-0 renal
# OVCAR-3 ovarian = test system: OVCAR-3 ovarian
# RXF 393 renal = test system: RXF 393 renal
# SK-MEL-5 melanoma = test system: SK-MEL-5 melanoma
# HL-60(TB) leukemia = test system: HL-60(TB) leukemia
# MDA-MB-231 breast = test system: MDA-MB-231 breast
# UO-31 renal = test system: UO-31 renal
compound,measurement,setting,value
CCOC(=O)c1c(NC(=O)c2ccc(C(F)(F)F)cc2)sc2c3c(ccc12)OCN(C)C3,GI50,OVCAR-4 ovarian,1.76 µM
same,TGI,OVCAR-4 ovarian,3.46 µM
same,GI50,OVCAR-5 ovarian,1.8 µM
same,TGI,OVCAR-5 ovarian,3.4 µM
same,GI50,HCC-2998 colon,1.67 µM
same,TGI,HCC-2998 colon,3.15 µM
same,GI50,LOX IMVI melanoma,1.65 µM
same,TGI,LOX IMVI melanoma,3.21 µM
same,GI50,MDA-MB-435,1.65 µM
same,TGI,MDA-MB-435,3.16 µM
same,GI50,IGROV1 ovarian,1.81 µM
same,TGI,IGROV1 ovarian,3.52 µM
same,GI50,HS 578T breast,1.84 µM
same,TGI,HS 578T breast,3.97 µM
same,GI50,BT-549 breast,> 100 µM
same,TGI,BT-549 breast,> 100 µM
same,GI50,EKVX NSCLC,1.69 µM
same,TGI,EKVX NSCLC,3.36 µM
same,GI50,NCI-H522 lung,1.72 µM
same,TGI,NCI-H522 lung,3.35 µM
same,GI50,SF-295 CNS,1.79 µM
same,TGI,SF-295 CNS,3.32 µM
same,GI50,A549 NSCLC,1.79 µM
same,TGI,A549 NSCLC,3.61 µM
same,GI50,RPMI-8226 leukemia,1.33 µM
same,TGI,RPMI-8226 leukemia,3.86 µM
same,GI50,SW-620 colon,1.78 µM
same,TGI,SW-620 colon,3.42 µM
same,GI50,HCT-15 colon,1.74 µM
same,TGI,HCT-15 colon,3.28 µM
same,GI50,HT29 colon,1.75 µM
same,TGI,HT29 colon,3.34 µM
same,GI50,A498 renal,1.67 µM
same,TGI,A498 renal,3.21 µM
same,GI50,MALME-3M melanoma,1.83 µM
same,TGI,MALME-3M melanoma,3.51 µM
same,GI50,DU-145 prostate,1.81 µM
same,TGI,DU-145 prostate,3.41 µM
same,GI50,KM12 colon,2.01 µM
same,TGI,KM12 colon,3.77 µM
same,GI50,MCF7 breast,1.62 µM
same,TGI,MCF7 breast,3.08 µM
same,GI50,SNB-19 CNS,1.78 µM
same,TGI,SNB-19 CNS,3.52 µM
same,GI50,SN12C renal,1.79 µM
same,TGI,SN12C renal,3.43 µM
same,GI50,SK-MEL-2 melanoma,1.8 µM
same,TGI,SK-MEL-2 melanoma,3.44 µM
same,GI50,ACHN renal,1.8 µM
same,TGI,ACHN renal,3.24 µM
same,GI50,TK-10 renal,1.68 µM
same,TGI,TK-10 renal,3.13 µM
same,GI50,SK-MEL-28 melanoma,1.8 µM
same,TGI,SK-MEL-28 melanoma,3.28 µM
same,GI50,U251 CNS,1.71 µM
same,TGI,U251 CNS,3.34 µM
same,GI50,SNB-75 CNS,1.49 µM
same,TGI,SNB-75 CNS,3.34 µM
same,GI50,HCT-116 colon,1.74 µM
same,TGI,HCT-116 colon,3.34 µM
same,GI50,NCI-H226 lung,1.79 µM
same,TGI,NCI-H226 lung,3.6 µM
same,GI50,SK-OV-3 ovarian,1.95 µM
same,TGI,SK-OV-3 ovarian,3.77 µM
same,GI50,NCI-H23 lung,1.81 µM
same,TGI,NCI-H23 lung,3.5 µM
same,GI50,NCI-H460 lung,1.89 µM
same,TGI,NCI-H460 lung,3.55 µM
same,GI50,HOP-62 NSCLC,2 µM
same,TGI,HOP-62 NSCLC,4.32 µM
same,GI50,PC-3 prostate,1.53 µM
same,TGI,PC-3 prostate,3.15 µM
same,GI50,UACC-257 melanoma,1.62 µM
same,TGI,UACC-257 melanoma,3.27 µM
same,GI50,COLO 205 colon,1.78 µM
same,TGI,COLO 205 colon,3.5 µM
same,GI50,SF-268 CNS,1.83 µM
same,TGI,SF-268 CNS,3.66 µM
same,GI50,OVCAR-8 ovarian,1.86 µM
same,TGI,OVCAR-8 ovarian,3.76 µM
same,GI50,CAKI-1 renal,1.67 µM
same,TGI,CAKI-1 renal,3.2 µM
same,GI50,SF-539 CNS,1.75 µM
same,TGI,SF-539 CNS,3.3 µM
same,GI50,HOP-92 NSCLC,1.14 µM
same,TGI,HOP-92 NSCLC,2.68 µM
same,GI50,T-47D breast,1.84 µM
same,TGI,T-47D breast,3.96 µM
same,GI50,UACC-62 melanoma,1.72 µM
same,TGI,UACC-62 melanoma,3.28 µM
same,GI50,786-0 renal,2.22 µM
same,TGI,786-0 renal,4.92 µM
same,GI50,OVCAR-3 ovarian,1.79 µM
same,TGI,OVCAR-3 ovarian,3.33 µM
same,GI50,RXF 393 renal,1.56 µM
same,TGI,RXF 393 renal,2.97 µM
same,GI50,SK-MEL-5 melanoma,1.81 µM
same,TGI,SK-MEL-5 melanoma,3.45 µM
same,GI50,HL-60(TB) leukemia,1.69 µM
same,TGI,HL-60(TB) leukemia,4.74 µM
same,GI50,MDA-MB-231 breast,1.86 µM
same,TGI,MDA-MB-231 breast,3.7 µM
same,GI50,UO-31 renal,1.55 µM
same,TGI,UO-31 renal,2.95 µM
